Patent publication USRE48461E1, “Modulation of androgen receptor expression” (Ionis Pharmaceuticals, Inc., priority 2012, dated 2021)
Oligonucleotides are written 5' to 3', each unit as a sugar letter and its base; * is a phosphorothioate linkage, no mark a phosphodiester; rarer units and linkages stand in square brackets, end groups in braces. Plain capitals give the bases only. k = constrained ethyl (cEt); d = 2'-deoxy (DNA)

System: AR mRNA
Assay: Dose-dependent antisense inhibition of human AR in HuVEC cells (electroporation, qRT-PCR RTS3559, IC50)
Type: cell-based
Method in brief: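 HuVEC cells dosed with antisense oligonucleotides by electroporation and treated approximately 16 hours. AR mRNA quantified by real-time qPCR with primer probe set RTS3559 and normalised to total RNA by RIBOGREEN; IC50 from dose-response.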

Substance: 549458 (kG*kT*kT*dG*dA*dT*dT*dT*dA*dA*dT*dG*dG*kT*kT*kG) [compound 549458]
- percent inhibition of AR (31.25 nM, HuVEC, ~16 h, Table 6): 15%
- percent inhibition of AR (31.25 nM, HuVEC, ~16 h, Table 8): 30%
- percent inhibition of AR (31.25 nM, HuVEC, ~16 h, Table 14): 0%
- percent inhibition of AR (46.9 nM, HuVEC, ~16 h, Table 15): 15%
- percent inhibition of AR (55.6 nM, HuVEC, ~16 h, Table 4): 48%
- percent inhibition of AR (62.5 nM, HuVEC, ~16 h, Table 6): 25%
- percent inhibition of AR (62.5 nM, HuVEC, ~16 h, Table 8): 36%
- percent inhibition of AR (62.5 nM, HuVEC, ~16 h, Table 10): 25%
- percent inhibition of AR (62.5 nM, HuVEC, ~16 h, Table 11): 16%
- percent inhibition of AR (62.5 nM, HuVEC, ~16 h, Table 12): 19%
- percent inhibition of AR (62.5 nM, HuVEC, ~16 h, Table 14): 19%
- percent inhibition of AR (125.0 nM, HuVEC, ~16 h, Table 6): 47%
- percent inhibition of AR (125.0 nM, HuVEC, ~16 h, Table 8): 54%
- percent inhibition of AR (125.0 nM, HuVEC, ~16 h, Table 10): 46%
- percent inhibition of AR (125.0 nM, HuVEC, ~16 h, Table 11): 22%
- percent inhibition of AR (125.0 nM, HuVEC, ~16 h, Table 12): 22%
- percent inhibition of AR (125.0 nM, HuVEC, ~16 h, Table 14): 40%
- percent inhibition of AR (166.7 nM, HuVEC, ~16 h, Table 4): 84%
- percent inhibition of AR (187.5 nM, HuVEC, ~16 h, Table 15): 50%
- percent inhibition of AR (500.0 nM, HuVEC, ~16 h, Table 4): 97%
- percent inhibition of AR (500.0 nM, HuVEC, ~16 h, Table 6): 88%
- percent inhibition of AR (500.0 nM, HuVEC, ~16 h, Table 8): 85%
- percent inhibition of AR (500.0 nM, HuVEC, ~16 h, Table 10): 64%
- percent inhibition of AR (500.0 nM, HuVEC, ~16 h, Table 11): 64%
- percent inhibition of AR (500.0 nM, HuVEC, ~16 h, Table 12): 38%
- percent inhibition of AR (500.0 nM, HuVEC, ~16 h, Table 14): 74%
- percent inhibition of AR (750.0 nM, HuVEC, ~16 h, Table 15): 85%
- percent inhibition of AR (1000.0 nM, HuVEC, ~16 h, Table 6): 93%
- percent inhibition of AR (1000.0 nM, HuVEC, ~16 h, Table 8): 90%
- percent inhibition of AR (1000.0 nM, HuVEC, ~16 h, Table 10): 78%
- percent inhibition of AR (1000.0 nM, HuVEC, ~16 h, Table 11): 74%
- percent inhibition of AR (1000.0 nM, HuVEC, ~16 h, Table 12): 71%
- percent inhibition of AR (1000.0 nM, HuVEC, ~16 h, Table 14): 90%
- percent inhibition of AR (1500.0 nM, HuVEC, ~16 h, Table 4): 98%
- percent inhibition of AR (3000.0 nM, HuVEC, ~16 h, Table 15): 96%
- IC50 (HuVEC cells, electroporation): 190 nM
- inhibition of AR mRNA at 46.9 nM (HuVEC cells, electroporation, 46.9 nM ASO): 15%
- inhibition of AR mRNA at 187.5 nM (HuVEC cells, electroporation, 187.5 nM ASO): 50%
- inhibition of AR mRNA at 750.0 nM (HuVEC cells, electroporation, 750.0 nM ASO): 85%
- inhibition of AR mRNA at 3000.0 nM (HuVEC cells, electroporation, 3000.0 nM ASO): 96%
- IC50 (HuVEC, ~16 h, Table 4): 57 nM
- IC50 (HuVEC, ~16 h, Table 6): 100 nM
- IC50 (HuVEC, ~16 h, Table 8): 100 nM
- IC50 (HuVEC, ~16 h, Table 10): 203 nM
- IC50 (HuVEC, ~16 h, Table 11): 324 nM
- IC50 (HuVEC, ~16 h, Table 12): 470 nM
- IC50 (HuVEC, ~16 h, Table 14): 196 nM
- IC50 (HuVEC, ~16 h, Table 15): 190 nM
- percent inhibition of AR, 46.9 nM (Table 29, 46.9 nM, HuVEC, electroporation, approximately 16 hours): 21%
- percent inhibition of AR, 187.5 nM (Table 29, 187.5 nM, HuVEC, electroporation, approximately 16 hours): 72%
- percent inhibition of AR, 750.0 nM (Table 29, 750.0 nM, HuVEC, electroporation, approximately 16 hours): 91%
- percent inhibition of AR, 3000.0 nM (Table 29, 3000.0 nM, HuVEC, electroporation, approximately 16 hours): 97%
- IC50 (Table 29, HuVEC, electroporation, approximately 16 hours): 110 nM
- percent inhibition of AR, 46.9 nM (Table 30, 46.9 nM, HuVEC, electroporation, approximately 16 hours): 22%
- percent inhibition of AR, 187.5 nM (Table 30, 187.5 nM, HuVEC, electroporation, approximately 16 hours): 62%
- percent inhibition of AR, 750.0 nM (Table 30, 750.0 nM, HuVEC, electroporation, approximately 16 hours): 92%
- percent inhibition of AR, 3000.0 nM (Table 30, 3000.0 nM, HuVEC, electroporation, approximately 16 hours): 97%
- IC50 (Table 30, HuVEC, electroporation, approximately 16 hours): 130 nM
- percent inhibition of AR, 46.9 nM (Table 31, 46.9 nM, HuVEC, electroporation, approximately 16 hours): 24%
- percent inhibition of AR, 187.5 nM (Table 31, 187.5 nM, HuVEC, electroporation, approximately 16 hours): 59%
- percent inhibition of AR, 750.0 nM (Table 31, 750.0 nM, HuVEC, electroporation, approximately 16 hours): 92%
- percent inhibition of AR, 3000.0 nM (Table 31, 3000.0 nM, HuVEC, electroporation, approximately 16 hours): 98%
- IC50 (Table 31, HuVEC, electroporation, approximately 16 hours): 130 nM
- percent inhibition of AR, 46.9 nM (Table 32, 46.9 nM, HuVEC, electroporation, approximately 16 hours): 19%
- percent inhibition of AR, 187.5 nM (Table 32, 187.5 nM, HuVEC, electroporation, approximately 16 hours): 58%
- percent inhibition of AR, 750.0 nM (Table 32, 750.0 nM, HuVEC, electroporation, approximately 16 hours): 89%
- percent inhibition of AR, 3000.0 nM (Table 32, 3000.0 nM, HuVEC, electroporation, approximately 16 hours): 96%
- IC50 (Table 32, HuVEC, electroporation, approximately 16 hours): 150 nM
- percent inhibition of AR, 46.9 nM (Table 33, 46.9 nM, HuVEC, electroporation, approximately 16 hours): 21%
- percent inhibition of AR, 187.5 nM (Table 33, 187.5 nM, HuVEC, electroporation, approximately 16 hours): 61%
- percent inhibition of AR, 750.0 nM (Table 33, 750.0 nM, HuVEC, electroporation, approximately 16 hours): 90%
- percent inhibition of AR, 3000.0 nM (Table 33, 3000.0 nM, HuVEC, electroporation, approximately 16 hours): 96%
- IC50 (Table 33, HuVEC, electroporation, approximately 16 hours): 130 nM
- percent inhibition of AR, 46.9 nM (Table 34, 46.9 nM, HuVEC, electroporation, approximately 16 hours): 14%
- percent inhibition of AR, 187.5 nM (Table 34, 187.5 nM, HuVEC, electroporation, approximately 16 hours): 53%
- percent inhibition of AR, 750.0 nM (Table 34, 750.0 nM, HuVEC, electroporation, approximately 16 hours): 84%
- percent inhibition of AR, 3000.0 nM (Table 34, 3000.0 nM, HuVEC, electroporation, approximately 16 hours): 95%
- IC50 (Table 34, HuVEC, electroporation, approximately 16 hours): 180 nM
- percent inhibition of AR, 46.9 nM (Table 35, 46.9 nM, HuVEC, electroporation, approximately 16 hours): 13%
- percent inhibition of AR, 187.5 nM (Table 35, 187.5 nM, HuVEC, electroporation, approximately 16 hours): 49%
- percent inhibition of AR, 750.0 nM (Table 35, 750.0 nM, HuVEC, electroporation, approximately 16 hours): 84%
- percent inhibition of AR, 3000.0 nM (Table 35, 3000.0 nM, HuVEC, electroporation, approximately 16 hours): 91%
- IC50 (Table 35, HuVEC, electroporation, approximately 16 hours): 190 nM
- percent inhibition of AR, 46.9 nM (Table 36, 46.9 nM, HuVEC, electroporation, approximately 16 hours): 1%
- percent inhibition of AR, 187.5 nM (Table 36, 187.5 nM, HuVEC, electroporation, approximately 16 hours): 51%
- percent inhibition of AR, 750.0 nM (Table 36, 750.0 nM, HuVEC, electroporation, approximately 16 hours): 83%
- percent inhibition of AR, 3000.0 nM (Table 36, 3000.0 nM, HuVEC, electroporation, approximately 16 hours): 96%
- IC50 (Table 36, HuVEC, electroporation, approximately 16 hours): 230 nM
